{"source": "ChEMBL document CHEMBL3045079", "about": "“Synthesis, antimalarial and antibacterial activities of 3-amino acid- and aryl amine-substituted 2-methyl-3H-quinalzolin-4-ones” (2010)", "key": {"Plasmodium yoelii [1]": {"system": "Plasmodium yoelii", "assay": "Antimalarial activity against Plasmodium yoelii N-67 infected Swiss mouse assessed as parasitemia at 200 mg/kg, ip qd administered 4 days measured on day 7 (reference value: 19.5 +/- 0.76 %)", "assay_type": "functional", "conditions": "route intraperitoneal"}, "Staphylococcus aureus": {"system": "Staphylococcus aureus", "assay": "Antibacterial activity against Staphylococcus aureus at 100 ug after 24 hr by cup-plate method", "assay_type": "functional, organism-based"}, "Escherichia coli": {"system": "Escherichia coli", "assay": "Antibacterial activity against Escherichia coli at 100 ug after 24 hr by cup-plate method", "assay_type": "functional, organism-based"}, "Plasmodium yoelii [2]": {"system": "Plasmodium yoelii", "assay": "Antimalarial activity against Plasmodium yoelii N-67 infected Swiss mouse assessed as parasitemia at 200 mg/kg, ip qd administered 4 days measured 24 hr post last treatment (reference value: 12.36 +/- 1.14 %)", "assay_type": "functional", "conditions": "route intraperitoneal"}, "Plasmodium yoelii [3]": {"system": "Plasmodium yoelii", "assay": "Antimalarial activity against Plasmodium yoelii N-67 infected Swiss mouse assessed as mean survival time at 200 mg/kg, ip qd administered 4 days measured 24 hr post last treatment (reference value: 8.2 +/- 0.86 days)", "assay_type": "functional", "conditions": "route intraperitoneal"}}, "note": "The source made the active and inactive calls. No cut-off for these calls is given here."}
{"smiles": "Cc1nc2ccccc2c(=O)n1[C@@H](CCCCN)C(=O)O", "values": [{"measurement": "Activity", "setting": "Plasmodium yoelii [1]", "result": 17.5, "unit": "%"}, {"measurement": "Activity", "setting": "Staphylococcus aureus", "result": "inactive"}, {"measurement": "Activity", "setting": "Escherichia coli", "result": "inactive"}, {"measurement": "Activity", "setting": "Plasmodium yoelii [2]", "result": 9.78, "unit": "%"}, {"measurement": "MST", "setting": "Plasmodium yoelii [3]", "result": 6.8, "unit": "days"}]}
{"smiles": "Cc1nc2ccccc2c(=O)n1-c1ccc([N+](=O)[O-])cc1", "values": [{"measurement": "Activity", "setting": "Plasmodium yoelii [1]", "result": 25.5, "unit": "%"}, {"measurement": "Activity", "setting": "Staphylococcus aureus", "result": "inactive"}, {"measurement": "Activity", "setting": "Escherichia coli", "result": "inactive"}, {"measurement": "Activity", "setting": "Plasmodium yoelii [2]", "result": 10.43, "unit": "%"}, {"measurement": "MST", "setting": "Plasmodium yoelii [3]", "result": 7, "unit": "days"}]}
{"smiles": "Cc1nc2ccccc2c(=O)n1[C@@H](CS)C(=O)O", "values": [{"measurement": "Activity", "setting": "Plasmodium yoelii [1]", "result": 25, "unit": "%"}, {"measurement": "Activity", "setting": "Staphylococcus aureus", "result": "inactive"}, {"measurement": "Activity", "setting": "Escherichia coli", "result": "inactive"}, {"measurement": "Activity", "setting": "Plasmodium yoelii [2]", "result": 11.9, "unit": "%"}, {"measurement": "MST", "setting": "Plasmodium yoelii [3]", "result": 7.4, "unit": "days"}]}
{"smiles": "Cc1nc2ccccc2c(=O)n1[C@@H](CCC(=O)O)C(=O)O", "values": [{"measurement": "Activity", "setting": "Plasmodium yoelii [1]", "result": 18.45, "unit": "%"}, {"measurement": "Activity", "setting": "Staphylococcus aureus", "result": "inactive"}, {"measurement": "Activity", "setting": "Escherichia coli", "result": "inactive"}, {"measurement": "Activity", "setting": "Plasmodium yoelii [2]", "result": 9.6, "unit": "%"}, {"measurement": "MST", "setting": "Plasmodium yoelii [3]", "result": 7.8, "unit": "days"}]}
{"smiles": "Cc1nc2ccccc2c(=O)n1CC(=O)O", "values": [{"measurement": "Activity", "setting": "Plasmodium yoelii [1]", "result": 17.2, "unit": "%"}, {"measurement": "Activity", "setting": "Staphylococcus aureus", "result": "inactive"}, {"measurement": "Activity", "setting": "Escherichia coli", "result": "inactive"}, {"measurement": "Activity", "setting": "Plasmodium yoelii [2]", "result": 10.5, "unit": "%"}, {"measurement": "MST", "setting": "Plasmodium yoelii [3]", "result": 6.6, "unit": "days"}]}
{"smiles": "Cc1nc2ccccc2c(=O)n1-c1ccc(O)cc1", "values": [{"measurement": "Activity", "setting": "Plasmodium yoelii [1]", "result": 16.8, "unit": "%"}, {"measurement": "Activity", "setting": "Staphylococcus aureus", "result": "inactive"}, {"measurement": "Activity", "setting": "Escherichia coli", "result": "inactive"}, {"measurement": "Activity", "setting": "Plasmodium yoelii [2]", "result": 10.52, "unit": "%"}, {"measurement": "MST", "setting": "Plasmodium yoelii [3]", "result": 6.8, "unit": "days"}]}
